In article PMC4076210, “Discovery of Novel AKT Inhibitors with Enhanced Anti-Tumor Effects in Combination with the MEK Inhibitor” (PLoS ONE, 2014):

System: solid tumor cell lines
Assay: 3-day proliferation assay (CellTiter-Glo)
Type: cell-based, human
Settings: for IC50: Homo sapiens
Method: Various tumor cell lines were obtained from different sources including; the American Type Cell Culture Collection, the Developmental Therapeutics Program, the National Cancer Institute, the German Resource Center for Biological Material and the European Collection of Animal Cell Cultures. Cell lines were typically grown in […] containing 10% FBS. Some cell lines were grown in media specified by the vendor. A 3-day proliferation assay using CellTiter-Glo (CTG, Promega) was performed to measure the growth inhibition by the compounds at 0–30 µM. Cell growth was determined relative to untreated (DMSO) controls. EC50's were calculated from inhibition curves using a 4- or 6-parameter fitting algorithm in the Assay Client application.

Cn1ncc(Cl)c1-c1cc(C(=O)N[C@H](CN)Cc2cccc(F)c2)sc1Cl [GSK2110183]
solid tumor cell lines with EC50<1 µM (178 cell lines, 3 days, CTG): 21% | IC50 (22Rv1, 22Rv1, Prostate): 0.706 µM | IC50 (647-V, 647V, Bladder): 11.5 µM | IC50 (786-0, 786-O, Kidney): 1.64 µM | IC50 (A204, A204, Sarcoma): 2.14 µM | IC50 (A549, A549, Lung): 3.28 µM | IC50 (A673, A673, Sarcoma): 19.9 µM | IC50 (A2780, A2780, Ovary): 4.03 µM | IC50 (A-375, A375, Skin): 8.68 µM | IC50 (A-427, A427, Lung): 19 µM | IC50 (ACHN, Kidney): 3.71 µM | IC50 (AGS, Stomach): 0.964 µM | IC50 (BE(2)-C, BE2C, Neuroblastoma): 1.47 µM | IC50 (BFTC-905, BFTC905, Bladder): 2.64 µM | IC50 (BT-20, BT20, Breast): 0.311 µM | IC50 (BXPC-3, BXPC3, Pancreas): > 30 µM | IC50 (C3A, Liver): 1.75 µM | IC50 (C32TG, Skin): 0.975 µM | IC50 (C-33-A, C-33A, Cervix): 0.541 µM | IC50 (C-41, Cervix): 15.2 µM | IC50 (CAL-27, CAL27, Head & Neck): 8.01 µM | IC50 (CAL-62, CAL62, Thyroid): 10.4 µM | IC50 (CCF-STTG1, CCFSTTG1, Brain): 0.673 µM | IC50 (CGTH-W-1, CGTHW1, Thyroid): 3.07 µM | IC50 (CHL-1, CHL1, Skin): 3.79 µM | IC50 (CHP-212, CHP212, Neuroblastoma): 2.32 µM | IC50 (COLO 205, COLO205, Colon): 7.58 µM | IC50 (COLO 320DM, COLO320DM, Colon): 1.34 µM | IC50 (COLO 704, COLO704, Ovary): 0.339 µM | IC50 (COR-L23, CORL23, Lung): 3.92 µM | IC50 (Calu-3, CALU3, Lung): 3.31 µM | IC50 (Calu-6, CALU6, Lung): 5.49 µM | IC50 (Caov-3, CAOV3, Ovary): 6.18 µM | IC50 (Capan-2, Capan2, Pancreas): 9.38 µM | IC50 (DBTRG-05MG, DBTRG05MG, Brain): 4.43 µM | IC50 (DKMG, Brain): 3.68 µM | IC50 (DLD-1, DLD1, Colon): 8.45 µM | IC50 (DU-145, DU145, Prostate): 6.54 µM | IC50 (DU-4475, DU4475, Breast): 2.27 µM | IC50 (DoTc2-4510, DoTc24510, Cervix): 2.25 µM | IC50 (EFM-19, EFM19, Breast): 0.117 µM | IC50 (EKVX, Lung): 5.54 µM | IC50 (ES2, Ovary): 4.52 µM | IC50 (FaDu, Head & Neck): 10.5 µM | IC50 (G-401, G401, Head & Neck): 1.12 µM | IC50 (GCT, Sarcoma): 5.89 µM | IC50 (H4, Brain): 2.99 µM | IC50 (HCC70, HCC70, Breast): 0.081 µM | IC50 (HCC1954, HCC1954, Breast): 0.32 µM | IC50 (HCC 2998, HCC2998, Colon): 2.2 µM | IC50 (HCT-116, HCT116, Colon): 5.64 µM | IC50 (HMCB, Skin): 4.46 µM | IC50 (HN5, Head & Neck): 2.96 µM | IC50 (HOS, Sarcoma): 2.46 µM | IC50 (HPAF-II, HPAFII, Pancreas): 7.49 µM | IC50 (HT3, Cervix): 2.66 µM | IC50 (HT-29, HT29, Colon): 2.02 µM | IC50 (HT-1080, HT1080, Sarcoma): 7.92 µM | IC50 (HUVEC, Normal Endothelial): 3 µM | IC50 (HeLa, Cervix): 6.33 µM | IC50 (Hep3B, Liver): 0.399 µM | IC50 (Hs746T, Stomach): 2.07 µM | IC50 (IGROV-1, IGROV1, Ovary): 0.054 µM | IC50 (J82, Bladder): 2.07 µM | IC50 (KATO III, KATOIII, Stomach): 0.571 µM | IC50 (KHOS-240S, KHOS240S, Sarcoma): 8.15 µM | IC50 (KM12, KM12, Colon): 6.49 µM | IC50 (KPL-1, KPL1, Breast): 3.83 µM | IC50 (KYSE-30, KYSE30, Oesophagus): 3.44 µM | IC50 (LNCaP, Prostate): 0.076 µM | IC50 (LS174T, Colon): 3.47 µM | IC50 (LS-1034, LS1034, Colon): 3.17 µM | IC50 (M14, Skin): 4.88 µM | IC50 (MC-IXC, MCIXC, Neuroblastoma): 1.05 µM | IC50 (MCF7, MCF7, Breast): 0.473 µM | IC50 (MCF-10A, MCF10A, Normal Breast): 0.644 µM | IC50 (MDA-MB-175-VII, MDAMB175-VII, Breast): 0.189 µM | IC50 (MDA-MB-231, MDAMB231, Breast): 13.2 µM | IC50 (MDA-MB-453, MDAMB453, Breast): 1.17 µM | IC50 (MDA-MB-468, MDAMB468, Breast): 0.995 µM | IC50 (MES-SA, MESSA, Sarcoma): 0.66 µM | IC50 (MIA PaCa-2, MiaPaCa, Pancreas): 1.71 µM | IC50 (NCI-H69, NCIH69, Lung): 1.39 µM | IC50 (NCI-H82, NCIH82, Lung): 29.3 µM | IC50 (NCI-H146, NCIH146, Lung): 11.3 µM | IC50 (NCI-H157, NCIH157, Lung): 2.03 µM | IC50 (NCI-H187, NCIH187, Lung): 0.263 µM | IC50 (NCI-H209, NCI-H209, Lung): 4.43 µM | IC50 (NCI-H226, NCIH226, Lung): 6.14 µM | IC50 (NCI-H292, NCIH292, Lung): 4.82 µM | IC50 (NCI-H322, NCIH322, Lung): 9.34 µM | IC50 (NCI-H358, NCI-H358, Lung): 1.93 µM | IC50 (NCI-H446, NCIH446, Lung): 1.14 µM | IC50 (NCI-H460, NCIH460, Lung): 3.73 µM | IC50 (NCI-H508, NCIH508, Lung): 0.309 µM | IC50 (NCI-H520, NCIH520, Lung): 0.935 µM | IC50 (NCI-H630, NCIH630, Lung): 5.95 µM | IC50 (NCI-H661, NCIH661, Lung): 5.5 µM | IC50 (NCI-H716, NCIH716, Colon): 3.85 µM | IC50 (NCI-H747, NCIH747, Lung): 2.05 µM | IC50 (NCI-H1563, NCIH1563, Lung): 0.582 µM | IC50 (NCI-H1792, NCIH1792, Lung): 4.68 µM | IC50 (NCI-H2030, NCIH2030, Lung): 5.67 µM | IC50 (NCI-H2052, NCIH2052, Lung): 4.75 µM | IC50 (NCI-H2081, NCIH2081, Lung): 0.73 µM | IC50 (NCI-H2122, NCIH2122, Lung): 2.97 µM | IC50 (NCI-H2170, NCI-H2170, Lung): 1.56 µM | IC50 (NCI-H2228, NCIH2228, Lung): 0.926 µM | IC50 (NCI-N87, NCIN87, Stomach): 1.29 µM | IC50 (NCI/ADR-RES, NCIADRRES, Breast): 12.3 µM | IC50 (OE19, OE19, Oesophagus): 5.52 µM | IC50 (OE21, OE21, Oesophagus): 0.256 µM | IC50 (OE33, OE33, Oesophagus): 8.07 µM | IC50 (OV-90, OV90, Ovary): 4.69 µM | IC50 (OVCAR-3, OVCAR3, Ovary): 5.85 µM | IC50 (OVCAR-4, OVCAR4, Ovary): 20 µM | IC50 (OVCAR-5, OVCAR5, Ovary): 7.72 µM | IC50 (PANC-1, Panc1, Pancreas): 4.42 µM | IC50 (PC3, Prostate): 3.02 µM | IC50 (PL45, PL45, Pancreas): 6.98 µM | IC50 (Panc 02.03, Panc02.03, Pancreas): 14.4 µM | IC50 (RD, Sarcoma): 11.3 µM | IC50 (RD-ES, RDES, Sarcoma): 2.41 µM | IC50 (RKO, Colon): 1.46 µM | IC50 (SAOS-2, SAOS2, Sarcoma): 5.35 µM | IC50 (SCC12, SCC12, Head & Neck): 3.85 µM | IC50 (SCC-9, SCC9, Head & Neck): 6.58 µM | IC50 (SCC-13, SCC-13, Head & Neck): 18.8 µM | IC50 (SCC-15, SCC15, Head & Neck): 4.17 µM | IC50 (SCC-25, SCC-25, Head & Neck): 4.69 µM | IC50 (SCLC3, Lung): 0.22 µM | IC50 (SF-295, SF295, Brain): 0.835 µM | IC50 (SF-539, SF539, Brain): 0.891 µM | IC50 (SH4, Skin): > 30 µM | IC50 (SHP77, SHP77, Lung): 5.22 µM | IC50 (SJRH30, SJRH30, Sarcoma): 0.919 µM | IC50 (SK-BR-3, SKBR3, Breast): 0.371 µM | IC50 (SK-LMS-1, SKLMS1, Sarcoma): 7.98 µM | IC50 (SK-MEL-1, SKMEL1, Skin): 2.14 µM | IC50 (SK-MEL-28, SKMEL28, Skin): 3.23 µM | IC50 (SK-MES-1, SKMES-1, Lung): 4.55 µM | IC50 (SK-N-AS, SKNAS, Neuroblastoma): 7.09 µM | IC50 (SK-OV-3, SKOV3, Ovary): 1.1 µM | IC50 (SK-UT-1, SKUT1, Sarcoma): 0.504 µM | IC50 (SKNF1, Neuroblastoma): 0.886 µM | IC50 (SN12C, Kidney): > 30 µM | IC50 (SNB-75, SNB75, Brain): 1.47 µM | IC50 (SNU1, SNU1, Stomach): 2.15 µM | IC50 (SNU-5, SNU5, Stomach): 11.8 µM | IC50 (SNU-16, SNU16, Stomach): 6.58 µM | IC50 (SNU-398, SNU398, Liver): 27.3 µM | IC50 (SNU-449, SNU449, Liver): 6.66 µM | IC50 (SW48, SW48, Colon): 0.807 µM | IC50 (SW480, SW480, Colon): > 30 µM | IC50 (SW579, SW579, Thyroid): 1.82 µM | IC50 (SW684, SW684, Sarcoma): 1.04 µM | IC50 (SW756, SW756, Cervix): 10.4 µM | IC50 (SW780, SW780, Bladder): 8.44 µM | IC50 (SW872, SW872, Sarcoma): 0.919 µM | IC50 (SW900, SW900, Lung): 15.6 µM | IC50 (SW1088, SW1088, Brain): 0.952 µM | IC50 (SW1417, SW1417, Colon): 3.96 µM | IC50 (SW1783, SW1783, Brain): 0.592 µM | IC50 (SW1990, SW1990, Pancreas): 13.3 µM | IC50 (Skut1B, Sarcoma): 0.021 µM | IC50 (T47D, T-47D, Breast): 0.331 µM | IC50 (T84, Colon): 8.49 µM | IC50 (TE 381.T, TE381T, Sarcoma): 1.63 µM | IC50 (TK-10, TK10, Kidney): 4.8 µM | IC50 (U20S, Sarcoma): > 30 µM | IC50 (U138-MG, U138MG, Brain): 2.81 µM | IC50 (U-87 MG, U87MG, Brain): 4.97 µM | IC50 (U-251, U251, Brain): 2.43 µM | IC50 (UACC-62, UACC62, Skin): 2.09 µM | IC50 (UACC-257, UACC257, Skin): 5.26 µM | IC50 (UMUC3, UMUC3, Bladder): 10 µM | IC50 (YAPC, Pancreas): 8.3 µM | IC50 (ZR-75-1, ZR75-1, Breast): 0.088 µM
